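All cell lines were grown in 96-well plates and treated with compound for 48 hours. Abbreviation: GI50, concentration required for 50% inhibition of growth.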 Calls of active or inactive are those of the source. Rule as the data show it: active = GI50 up to about 1.1 µM and inactive = higher.
How the values were obtained:
Assay in all cases: growth of human tumour cells (NCI), 48 h
[1] = tested on: ACHN
[2] = tested on: COLO 205
[3] = tested on: DMS-273
[4] = tested on: HCC 2998
[5] = tested on: HT-29
[6] = tested on: IGROV-1
[7] = tested on: K562
[8] = tested on: KM12
[9] = tested on: M19-MEL
[10] = tested on: OVCAR-3
[11] = tested on: OVCAR-5
[12] = tested on: RXF 393
[13] = tested on: SF-268
[14] = tested on: SF-539
[15] = tested on: SW-620
[16] = tested on: TK-10
[17] = tested on: UACC-257
[18] = tested on: A549
[19] = tested on: HOP-62

Measured: GI50

O=C1[C@@H]2C3c4ccccc4C([C@@H]2C(=O)N1c1ccccc1)S3(=O)=O
inactive: [1] > 100 µM | [2] > 100 µM | [3] > 100 µM | [4] > 100 µM | [5] > 100 µM | [6] > 100 µM | [7] 61.4 µM | [8] > 100 µM | [9] > 100 µM | [10] > 100 µM | [11] > 100 µM | [12] 38.1 µM | [13] 38.9 µM | [14] > 100 µM | [15] 51.4 µM | [16] > 100 µM | [17] > 100 µM

COC(=O)c1ccc(C=C(C#N)C#N)cc1
inactive: [18] > 100 µM | [1] 25 µM | [2] 27.7 µM | [3] 17.4 µM | [4] 15.6 µM | [19] 27 µM | [5] 33.4 µM | [6] 28.4 µM | [7] 23.2 µM | [8] 31.6 µM | [9] 25.2 µM | [10] 29.4 µM | [11] > 100 µM | [13] 23 µM | [14] 19.5 µM | [15] 21.3 µM | [16] 27.9 µM

CCOC(=O)C12CCCC1(O)N(NC(N)=O)C(C)=C2C(=O)OC (configuration not stated)
inactive: [18] > 100 µM | [1] > 100 µM | [2] > 100 µM | [3] > 100 µM | [4] > 100 µM | [19] > 100 µM | [5] > 100 µM | [6] > 100 µM | [7] > 100 µM | [8] > 100 µM | [9] > 100 µM | [10] > 100 µM | [11] > 100 µM | [13] > 100 µM | [14] > 100 µM | [15] > 100 µM | [16] > 100 µM | [17] > 100 µM

CCn1c(C)nc([N+](=O)[O-])c1Sc1ncc[nH]1
inactive: [18] > 100 µM | [1] 48.1 µM | [2] 27.9 µM | [3] 57.1 µM | [4] > 100 µM | [19] > 100 µM | [5] 78.7 µM | [6] 71 µM | [7] 31.4 µM | [8] > 100 µM | [9] 36.8 µM | [10] 74.8 µM | [11] > 100 µM | [13] 69.7 µM | [14] 52.6 µM | [15] 48.2 µM | [16] > 100 µM | [17] 39.4 µM

Nc1ccc2nc(Nc3ccc(F)cc3)cnc2c1
inactive: [18] > 100 µM | [1] > 100 µM | [2] > 100 µM | [3] > 100 µM | [4] > 100 µM | [19] > 100 µM | [5] > 100 µM | [7] 81.5 µM | [8] > 100 µM | [9] > 100 µM | [10] 90.4 µM | [11] > 100 µM | [13] 74.5 µM | [14] > 100 µM | [15] > 100 µM | [16] 87.3 µM | [17] > 100 µM

CCOC(=O)NC/C=C/COC1CCCCO1 (configuration not stated)
inactive: [18] > 100 µM | [1] > 100 µM | [2] > 100 µM | [3] > 100 µM | [4] > 100 µM | [19] > 100 µM | [6] > 100 µM | [7] > 100 µM | [8] > 100 µM | [9] > 100 µM | [12] > 100 µM | [13] > 100 µM | [14] > 100 µM | [15] > 100 µM | [16] > 100 µM | [17] > 100 µM

CCN1C2=NC(=O)N(C)C(=O)C2(Cl)C(C(SC)S(=O)(=O)c2ccc(C)cc2)c2ccccc21 (configuration not stated)
inactive: [18] 85.1 µM | [2] 31.6 µM | [3] 31.6 µM | [4] > 100 µM | [19] > 100 µM | [5] 34.8 µM | [6] 76.9 µM | [7] 20.7 µM | [9] 24.7 µM | [10] 24.1 µM | [11] > 100 µM | [13] 39.2 µM | [14] 37.5 µM | [15] 31.6 µM | [16] > 100 µM | [17] 23.6 µM

COC1=CC(=O)C2(C=C1OC)OC[C@H]1Oc3c(ccc4c3C=CC(C)(C)O4)C(=O)[C@H]12 (some centres not stated)
inactive: [18] 42.5 µM | [1] 44.8 µM | [2] 36.6 µM | [3] 35.1 µM | [4] 86.5 µM | [19] 92.7 µM | [5] 49.2 µM | [6] 40.3 µM | [7] 36.8 µM | [8] 40.3 µM | [9] 40.8 µM | [10] 42.4 µM | [11] > 100 µM | [12] 30.2 µM | [14] 34.5 µM | [15] 35 µM | [16] 79.3 µM | [17] 37.8 µM

— ChEMBL document CHEMBL1201862, “PubChem BioAssay data set” (2004)
